According to PMC7433010, “Exploration of multi‐target effects of 3‐benzoyl‐5‐hydroxychromen‐2‐one in Alzheimer’s disease cell and mouse models” (Aging Cell, 2020):

What was measured:
NQO1 = assay: Western blot of NQO1 in ∆K280 TauRD‐DsRed SH‐SY5Y cells; type: cell-based, human; conditions: 1 µM; induced untreated 79%, uninduced 100%
Method: (§1) Total proteins from ∆K280 TauRD-DsRed SH-SY5Y cells were obtained using a RIPA buffer containing 50 mM Tris-HCl (pH8.0), 150 mM NaCl, 2 mM EDTA (pH8.0), 50 mM NaF, 0.1% SDS, 0.5% sodium deoxycholate, 1% NP40, and a protease inhibitor cocktail (Sigma-Aldrich). After sonication and sitting on ice for 20 min, the lysates were centrifuged at 14,000 × g for 30 min at 4°C. Protein concentrations were determined using a protein assay kit (Bio-Rad, Hercules, CA, USA), with albumin as a standard. Total proteins (20 µg) were electrophoresed on 10% or 12% SDS-polyacrylamide gel and transferred onto polyvinylidene difluoride (PVDF) membranes (Sigma-Aldrich) through reverse electrophoresis. […] Subsequently, immune complexes were detected using a horseradish peroxidase-conjugated goat anti-mouse or goat anti-rabbit IgG antibody (1:5000; GeneTex, Irvive, CA, USA) and a chemiluminescent substrate (Millipore).

AKT = assay: Western blot of AKT in ∆K280 TauRD‐DsRed SH‐SY5Y cells; type: cell-based, human
Method: as §1
Figure S4. ΔK280 TauRD-DsRed SH-SY5Y cells. […] On day 9, neurite outgrowth and caspase 3 activity were measured. In addition, expression of HSPB1, NRF2, and CREB pathways were assessed. (b) Relative AKT, pAKT, ERK, and pERK protein levels analyzed through immunoblotting. […]

[1] = Body weight in STZ‐treated 3 × Tg‐AD mice; type: in vivo, mouse; conditions: 40 mg/kg i.p.; among the three groups
Method: For the in vivo LM‐031 treatment experiments, 6‐month‐old male homozygous 3 × Tg‐AD mice (n = 10 per group) were used. Mice were randomly divided into three groups: – streptozocin (STZ), STZ, and STZ/LM‐031. STZ‐induced hyperglycemia was used to accelerate the development of AD phenotype. Mouse body weight and blood glucose level were measured on days 1, 8, 15, 22, and 29. LM‐031 (40 mg/kg) or vehicle (DMSO:Cremophor EL:0.9% saline = 1:2:7) was intraperitoneally injected every day for 22 days from days 15 to 36. All animal procedures were ethically approved by the Institutional Animal Care and Use Committee of National Taiwan Normal University, Taipei, Taiwan (Permit Number: 103002) and were conducted in compliance with the ARRIVE (Animal Research: Reporting In Vivo Experiments) guidelines. Open‐field task, Y‐maze task, Morris water maze task, and immunohistochemistry and image analysis were performed.
Mice harboring APPSwe, PS1M146V, and […] transgenes (3×Tg-AD) (Oddo et al., 2003) were purchased from the Jackson Laboratory (004807; Bar Harbor, ME, USA). […] Mouse body weight was measured and blood glucose level was measured on days 1, 8, 15, 22, and 29 using a blood glucose meter (Bioland Technology, Taipei, Taiwan). […]

NeuN = assay: Immunohistochemistry of NeuN in hippocampus of STZ‐treated 3 × Tg‐AD mice; type: in vivo, mouse; conditions: – STZ 100%
Method: Mice harboring APPSwe, PS1M146V, and […] transgenes (3×Tg-AD) (Oddo et al., 2003) were purchased from the Jackson Laboratory (004807; Bar Harbor, ME, USA). Six-month-old male homozygous 3×Tg-AD mice were group housed at 20–25°C and 60% relative humidity under a daily 12-h light/12-h dark cycle, with assess to food and water ad libitum. Mice were randomly divided into 3 groups: – streptozocin (STZ), STZ, and STZ/LM-031 (n = 10 per group). STZ-induced hyperglycemia was used to accelerate the development of AD phenotype (Chen et al., 2014). Briefly, the mice were fasted for 12 h each day prior to intraperitoneal (i.p.) injection of STZ ([…]; Sigma-Aldrich) or vehicle (0.1 M sodium citrate pH4.5) for 4 times (days 2, 3, 9, and 10) (Chen et al., 2019). Mouse body weight was measured and blood glucose level was measured on days 1, 8, 15, 22, and 29 using a blood glucose meter (Bioland Technology, Taipei, Taiwan). LM-031 (40 mg/kg) or vehicle (DMSO:Cremophor EL:0.9% saline = 1:2:7) was intraperitoneally injected every day for 22 days from days 15 to 36. All animal procedures were ethically approved by the Institutional Animal Care and Use Committee of National Taiwan Normal University, Taipei, Taiwan (Permit Number: 103002) and were conducted in compliance with the ARRIVE (Animal Research: Reporting In Vivo Experiments) guidelines.
Mouse brains were removed, postfixed in 4% paraformaldehyde overnight, and cryopreserved in 30% sucrose solution at 4°C. Series of coronal brain sections (30 µm) were cut in a cryostat (Leica RM2125 RTS, Leica, Wetzlar, Germany). Heat-induced antigen retrieval for immunohistochemistry (IHC) was performed using antigen retrieval buffer (pH9.0, Thermo Fisher Scientific) to break methylene bridges and expose antigenic sites, allowing antibodies to bind. […] The sections were then washed and detected by using the UltraVision™ Quanto detection system containing horseradish peroxidase and chromogenic diaminobenzidine substrate (Thermo Fisher Scientific). […]

**Q.** Which NQO1 protein level (NQO1) does the source give for `O=C(c1ccccc1)c1cc2c(O)cccc2oc1=O` [LM‐031, 3‐benzoyl‐5‐hydroxychromen‐2‐one] here?
**A.** Its NQO1 protein level is 94%.

**Q.** And the AKT level (AKT)?
**A.** The AKT level was “not notably affected”.

**Q.** And the body weight [1]?
**A.** The body weight was “No significant change”.

**Q.** What about the “NeuN level, CA1” value (NeuN; STZ 89%) of the same molecule?
**A.** The value was 96%.

**Q.** And the “NeuN level, dentate gyrus (DG)” value (NeuN; STZ 90%)?
**A.** Its value is 97%.

**Q.** What about the “NeuN level, CA3” value (NeuN; STZ 91%) of the same molecule?
**A.** Its value is 95%.
